Patent US6239107A, “Conjugates of lipophilic moieties and fragments of vasoactive intestinal peptide (VIP)” (Yeda Research & Development Co., Ltd., priority 1996, dated 2001)
Non-standard residues stand in square brackets, D forms with d. Residues, ends and D or L forms follow the SMILES beside them. *: point of attachment. Stearoyl = CCCCCCCCCCCCCCCCCC(=O)*; Lauroyl = CCCCCCCCCCCC(=O)*

Experiments:
[1] = test system: rat cerebral cortical cell cultures (neurons) treated with β-amyloid peptide (amino acids 25-35); test: Neuronal survival assay, protection against β-amyloid toxicity; type: cell-based; settings: 5 days
Method: β-Amyloid peptide is known to be involved in Alzheimer's disease and is a toxic substance to neurons grown in culture (Pike et al., J. of Nezarosci., 13(4), 1676-1687 (1993); Yankner et al., Science, 250:279-282 (1990); Gozes et. al., Proc. Natl. Acad. Sci. USA, 93:[…] (1996)).
Rat cerebral cortical cell cultures were prepared by a slight modification of the techniques described by Forsythe and Westbrook (J. Physiol. Lord. 365:515, (1988)), in which cerebral cortex was used instead of hippocampus and newborn rats were utilized instead of E16 mice. Cerebral cortical cells (1.5-15×10^5 cells/35 mm dish) were plated on confluent cerebral cortical astrocyte feeder cultures as described (Gozes et al., J. Pharmacol Erp. Therap., 257:959-966 (1991)). The culture medium was DMEM-(Dulbeco Modified Eagle Medium) containing 5% horse serum and N3 [media supplement containing a hormone cocktail, according to (Romijn et al., Brain Res., 254:(4),583-589 (1981))]. After eight days growth in vitro, the cultures were given a complete change of medium and then were treated with the β-amyloid peptide (amino acids 25-35) for 5 days.
The β-amyloid peptide fragment was dissolved in water to a finalconcentration of 2.5 mM. […] Neurons were counted without knowledge of type of treatment as before. […]

[2] = Biodistribution to brain after intranasal application of radioiodinated conjugate; type: in vivo, rat; settings: thirty minutes after application, FIG. 15
Method: St-Lys-Lys-Tyr-Leu-NH2 (SEQ ID NO:6) was radioiodinated by using the chloramine T methods as described in Gozes et al., Endocrinology, 134:2121-2125 (1994) and about 7.8×10^6 cpm/2 μl 5% Sefsol™, 20% isopropanol/rat were applied intranasally to 250-300 g rats. Animals were sacrificed 30 minutes following drug administration and the frontal cortex was removed, weighed and counted for radioactivity in a gamma counter. Radioactive tissue samples (containing 1400 cpm/gram sample) were thereafter homogenized and subjected to centrifugation (5,400 g for 25 min.). Supernatants were then subjected to HPLC analysis against St-Lys-Lys-Tyr-Leu-NH2 (SEQ ID NO:6) as a marker (eluting using an acetonitrile gradient at fraction 25). Samples were monitored for radioactivity in a gamma counter.

[3] = test system: Apolipoprotein E-deficient newborn mice; test: Acquisition of developmental milestones in a model for mental retardation; type: in vivo; settings: ApoE deficient newborn mice, s.c. injection
Method: It has recently been discovered that mice deficient in apolipoprotein E (ApoE) (Plump et al., Cell, 71:343-363 (1992)) are retarded in their acquisition of developmental milestones.
8 newborn normal mice were injected (s.c. 1.2 μg 120 μu) with St-Lys-Lys-Tyr-Leu-NH2 or with saline. 8 ApoE deficient newborn mice were treated similarly.

[4] = same amounts of radiolabeled conjugate; Gozes et al., Endocrinology 134:2121-2125 (1994); cited from earlier work
[5] = test system: male rats (Wistar) injected i.c.v. with the cholinergic blocker AF64A; settings: rat, in vivo
Method: In vivo Model for Cholinergic Inhibition. 18 Male rats (Wistar, 250-300 g) were injected intracerebroventricularly (i.c.v.) at a rate of 0.21 μl/min., using plastic tubing (PE-20) attached to 25G needle; controls received an injection of saline 2 μl/side, experimental animals received injections of the cholinergic blocker (ethylcholine aziridium) AF64A (3 nmol/2 μl/side).
Drug treatment was initiated 7-10 days after AF64A injection. Animals were divided into two equal groups. Test group received daily nasal administration of St-Lys-Lys-Tyr-Leu-NH2 (SEQ ID NO:6) dissolved in 10% Sefsol™ and 40% isopropanol at a concentration of 10 μg/40 μl (20 μl administered through each nostril). […]
Rats were placed in a circular pool, 1.26 m in diameter, 0.2 m deep, equipped with a clear plexiglas column, with a 13.3 cm platform reaching just below the surface of the water (22-24° C). […] The latency of reaching the platform was recorded for each rat (in seconds) and the changes over days of training were graphed, which reflect learning and memory.
FIG. 3 depicts the effects of St-Lys-Lys-Tyr-D-Ala-NH2 (indicated KKYO in the figure) on learning and memory in the Alzheimer's in vivo test (AF64A-cholinotoxicity test) as described above. […] Following this test the platform is placed back in the water pool, but this time it is visible to the swimming rat and the time required to reach it is measured. […]

CCCCCCCCCCCC(=O)N[C@@H](CCCCN)C(=O)N[C@@H](CCCCN)C(=O)N[C@@H](Cc1ccc(O)cc1)C(=O)N[C@@H](CC(C)C)C(N)=O [Lau-Lys-Lys-Tyr-Leu-NH2] (Lauroyl-KKYL-NH2)
Active concentration (M) ([1]; added together with 25 μM β-amyloid peptide (25-35), NSE-stained neuron counts): 10^-11 -10^-10 M | Neuronal survival (%) ([1]; at the active concentration, with 25 μM β-amyloid peptide (25-35), as compared to control): 83-84%

CCCCCCCCCCCCCCCCCC(=O)N[C@@H](CCCCN)C(=O)N[C@@H](CCCCN)C(=O)N[C@@H](Cc1ccc(O)cc1)C(=O)N[C@@H](CC(C)C)C(N)=O [St-Lys-Lys-Tyr-Leu-NH2] (Stearoyl-KKYL-NH2)
intact conjugate in brain extract by HPLC [2]: could be observed in the brain

St-Nle^17 -VIP-NH2
forelimb placing behavior acquisition ([3]; versus untreated ApoE deficient mice, FIGS. 10 and 11): improved their placing acquisition essentially to the level of control | cliff avoidance acquisition ([3]; FIGS. 12 and 13): even better cliff avoidance acquisition than normal controls or similar cliff avoidance behavior to control | radioactivity obtained in the intestine [4]: 3700 cpm/g

CCCCCCCCCCCCCCCCCC(=O)N[C@@H](CCCCN)C(=O)N[C@@H](CCCCN)C(=O)N[C@@H](Cc1ccc(O)cc1)C(=O)N[C@H](C)C(N)=O [St-Lys-Lys-Tyr-D-Ala-NH2] (Stearoyl-KKY[dA]-NH2)
time required to reach the visible platform (possible motor deficits) [5]: no differences between the groups
